We go through 1 molecule from publication PMC5431342, “Discovery of an enzyme and substrate selective inhibitor of ADAM10 using an exosite-binding glycosylated substrate” (Scientific Reports, 2016).

In test [1] the test system is MDA-MB-231 cells. Briefly: Wound closure assay, MDA-MB-231. The following applies: MDA-MB-231, 10 µM. The test is classed as cell-based. How it is done:
For live-cell analysis of scratch-induced wound closure, 2.5 × 10^4 MDA-MB-231 and A549 cells per well were seeded in collagen G (40 µg/mL) (Biochrom AG, Germany) coated 96-well plates near confluence and allowed to grow overnight in standard medium (DMEM supplemented with 10% FBS and 1% P/S). At confluence, cells were pretreated 2 h with mitomycin (10 µg/mL) (Medac, Germany) to block cell proliferation and washed with standard media. Afterwards, cells were incubated in the presence of inhibitor at the indicated concentrations or DMSO (0.1% vehicle). Subsequently, a defined scratch (wound width between 642–767 µm) was performed in each well using the certified Essen Bioscience automated 96-wound maker^TM (Essen Biosciences, Hertfordshire, UK) for 96 well-plates. The medium was removed and 100 µL standard medium were added to the wells containing either inhibitor or DMSO. The closure of the wounded area was monitored using the IncuCyte ZOOM system by taking images of each well every 2 h over a period of 24 h. The reduction of wound width was determined over time using the IncuCyte ZOOM microscope software 2014A. Data were expressed as percentage of wound closure after 8 h.

Test [2] deals with shedding of HER2 from the surface of BT474 cells. The test can be described thus: HER2 shedding inhibition (AlphaLISA soluble HER2). The format is cell-based. To be noted: Homo sapiens, BT-474, 48 h. Here is the method:
To determine the effect of CID 3117694 on the release of HER2, an AlphaLISA soluble HER2 assay kit was utilized (Perkin Elmer # AL234 C/F). Briefly, 20,000 BT474 (HER2 positive) breast cancer cells were seeded in 200 µL of complete Hybricare media in 96 well plates. After 4 h, media was aspirated and CID 3117694 (3.125–100 µM) and controls (50 µM marimastat and GI 254023X)[11] were added in serum-free media. Cells were incubated for 48 h at 37 °C with 5% CO2 and under a humidified atmosphere. After incubation, 5 µL of supernatant was transferred into white opaque 384 well plate for HER2 AlphaLISA assay.
(Alpha assays give light when donor and acceptor beads are brought close together.)

Test [3] deals with T1, ADAM10 (Homo sapiens, UniProt O14672).
T1 construct: purchased R&D Systems 936-AD
T1 sequence (O14672 214-748): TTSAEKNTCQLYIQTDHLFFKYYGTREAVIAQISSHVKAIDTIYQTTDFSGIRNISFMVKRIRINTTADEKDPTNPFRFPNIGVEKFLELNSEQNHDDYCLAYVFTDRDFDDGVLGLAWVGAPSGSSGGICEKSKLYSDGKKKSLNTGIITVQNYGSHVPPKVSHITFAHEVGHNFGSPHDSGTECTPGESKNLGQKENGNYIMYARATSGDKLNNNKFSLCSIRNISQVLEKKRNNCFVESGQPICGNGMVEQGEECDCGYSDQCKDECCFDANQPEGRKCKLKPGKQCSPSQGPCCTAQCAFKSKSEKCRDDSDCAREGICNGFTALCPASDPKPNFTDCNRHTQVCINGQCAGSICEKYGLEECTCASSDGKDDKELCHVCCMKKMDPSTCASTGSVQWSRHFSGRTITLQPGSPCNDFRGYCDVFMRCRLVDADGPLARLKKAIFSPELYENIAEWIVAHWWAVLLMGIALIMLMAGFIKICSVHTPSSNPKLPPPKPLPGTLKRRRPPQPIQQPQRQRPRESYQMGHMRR
Briefly: ADAM10 kinetic assays, determination of inhibition type and mechanism. The test is classed as biochemical. How it is done:
Since true affinity of time-dependent inhibitors cannot be determined by steady state approaches, in order to determine the true inhibition modality and true affinity of CID 3117694 we performed kinetic assays with the range of glycosylated substrate (0.5–5 [S]/KM) and inhibitor (1.56–50 µM) concentrations in quadruplicate. Reactions were allowed to run for 6 h. Progress curve data were fitted using a non-linear regression model for time-dependent inhibition (Equation 1) using MatLab software.
First, we performed the ADAM10 reaction with glycosylated substrate in the presence of […] CID 3117694 in kinetic format without pre-incubation. Obtained k obs values were plotted versus [I] to determine whether the inhibitor binding conforms to a 1- or 2-step mechanism (Fig. 4A). […] Future studies will address the exact location of this exosite.
In order to determine true inhibition modality and affinity of CID 3117694, kinetic assays were performed with the range of substrate (0.5–5 [S]/KM) and inhibitor concentrations (1.56–50 µM) in quadruplicate. Reactions were allowed to run for 6 h. Progress curve data were fitted using a non-linear regression model for time-dependent inhibition (Equation 1) using MatLab software. [P]=vst+vi−vs/kobs⁎[1−exp(−kobst)]
Obtained k obs values were plotted versus [I] to determine whether the inhibitor binding conforms to a 1- or 2-step mechanism.
To obtain true potency, Equation 3 was solved for K i and K i ′. Resulting ratio of Ki′/Ki termed α (alpha) was used to determine mechanism of inhibition. In order to confirm the true binding modality, k obs was plotted versus [S]/KM. app^Ki=[S]+KM/KM/Ki+[S]/Ki′

Test [4] concerns the target T2, ADAM17 (Homo sapiens, UniProt P78536).
T2 construct: purchased R&D Systems 930-ADB
The test can be described thus: HPLC-based ADAM17 assay using glycosylated substrate. The test is classed as biochemical. How it is done: Both assays followed the same general protocol. 30 µL of 3x enzyme solution (30 nM) in assay buffer (10 mM Hepes, 0.001% Brij-35, pH 7.5) were added to solid bottom black 384 plates. Next, 30 µL of 3x test compounds and pharmacological controls were added to corresponding wells. After 30 min incubation at RT, the reactions were started by addition of 30 µL of 3x solution of glycosylated substrate (30 µM). Reactions were incubated at RT for 2 h and then quenched with 10 µL of 500 µM EDTA. Analytical RP-HPLC was performed on a 1260 Infinity Agilent Technologies liquid chromatograph equipped with an Agilent Poroshell 120 column. Eluents were 0.1% TFA in water (A) and 0.1% TFA in acetonitrile (B). The elution gradient was 0–98% B in 15 min with a flow rate of 1.0 mL/min. Detection was at λ = 214, 360, and 460 nm.

Where two headings read alike, the source gives them in different places.

T2 sequence (P78536 215-824): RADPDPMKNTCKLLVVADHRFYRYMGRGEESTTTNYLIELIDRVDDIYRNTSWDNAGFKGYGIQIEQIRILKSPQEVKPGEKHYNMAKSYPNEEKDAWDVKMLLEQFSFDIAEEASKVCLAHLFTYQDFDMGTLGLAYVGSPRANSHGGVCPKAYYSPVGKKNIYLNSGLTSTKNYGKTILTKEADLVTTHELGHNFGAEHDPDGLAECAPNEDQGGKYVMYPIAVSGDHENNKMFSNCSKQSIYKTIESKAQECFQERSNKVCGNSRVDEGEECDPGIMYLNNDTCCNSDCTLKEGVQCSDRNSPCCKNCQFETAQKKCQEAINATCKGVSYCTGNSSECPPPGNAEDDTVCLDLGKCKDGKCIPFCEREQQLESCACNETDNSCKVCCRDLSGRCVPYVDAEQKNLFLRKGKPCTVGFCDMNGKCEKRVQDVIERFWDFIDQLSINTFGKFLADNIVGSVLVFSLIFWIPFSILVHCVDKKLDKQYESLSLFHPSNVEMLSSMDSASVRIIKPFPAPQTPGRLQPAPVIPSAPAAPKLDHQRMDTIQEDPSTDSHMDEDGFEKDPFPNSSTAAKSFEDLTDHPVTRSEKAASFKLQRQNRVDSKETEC

As usually defined, the IC50 is the point on the concentration scale where inhibition reaches its midpoint. Low values mean greater potency, high ones weaker potency. As to `COc1cccc(C(=O)NNC(=O)C(=O)Nc2ccc(C)c(Cl)c2)c1` [CID 3117694], the “effect on wound healing” value in test [1] is listed as “significantly decreased wound healing”. In test [2], this molecule showed a half-maximal inhibitory concentration (IC50) of 30 ± 2.5 µM. In addition, the “ratio of Ki′/Ki, α (alpha)” value in test [3] turned out to be 21.7. The Ki in test [3] (apparent potency at initial velocity, hyperbolic two-step model, read-out: appKi) was 1.36 ± 0.2 µM; in test [3] (apparent potency at steady-state velocity, read-out: appKi*), 0.33 ± 0.02 µM; in test [3] (binding affinity for enzyme-substrate complex, read-out: Ki), 19 µM; in test [3] (binding affinity for free enzyme, read-out: Ki), 0.883 µM. Moreover, in test [3] (kobs versus [S]/KM and α), the inhibition modality entry was “competitive inhibitor”. The “inhibition of ADAM17-mediated hydrolysis of glycosylated substrate” value in test [4] is “not appreciably inhibited”.
